According to PubChem BioAssay (NCI):
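The compound was tested at five concentrations on cells cultured in 96-well plates, with a 48-hour exposure period. TGI is the concentration that stops growth completely.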

Tests used:
Assay in all cases: NCI tumour cell line growth inhibition, 48 h
MDA-N = tested on: MDA-N
NCI/ADR-RES ovarian = tested on: NCI/ADR-RES ovarian
SR leukemia = tested on: SR leukemia
KM12 colon = tested on: KM12 colon
HOP-62 NSCLC = tested on: HOP-62 NSCLC
NCI-H226 lung = tested on: NCI-H226 lung
NCI-H23 lung = tested on: NCI-H23 lung
OVCAR-4 ovarian = tested on: OVCAR-4 ovarian
SK-MEL-28 melanoma = tested on: SK-MEL-28 melanoma
SK-OV-3 ovarian = tested on: SK-OV-3 ovarian
SK-MEL-5 melanoma = tested on: SK-MEL-5 melanoma
SW-620 colon = tested on: SW-620 colon
SF-539 CNS = tested on: SF-539 CNS
IGROV1 ovarian = tested on: IGROV1 ovarian
RPMI-8226 leukemia = tested on: RPMI-8226 leukemia
U251 CNS = tested on: U251 CNS
UO-31 renal = tested on: UO-31 renal
BT-549 breast = tested on: BT-549 breast
TK-10 renal = tested on: TK-10 renal
MDA-MB-435 = tested on: MDA-MB-435
SK-MEL-2 melanoma = tested on: SK-MEL-2 melanoma
RXF 393 renal = tested on: RXF 393 renal
MOLT-4 leukemia = tested on: MOLT-4 leukemia
OVCAR-3 ovarian = tested on: OVCAR-3 ovarian
MCF7 breast = tested on: MCF7 breast
K-562 leukemia = tested on: K-562 leukemia
SNB-19 CNS = tested on: SNB-19 CNS
HCT-116 colon = tested on: HCT-116 colon
HT29 colon = tested on: HT29 colon
MALME-3M melanoma = tested on: MALME-3M melanoma
786-0 renal = tested on: 786-0 renal
SF-268 CNS = tested on: SF-268 CNS
UACC-62 melanoma = tested on: UACC-62 melanoma
HCC-2998 colon = tested on: HCC-2998 colon
ACHN renal = tested on: ACHN renal
OVCAR-5 ovarian = tested on: OVCAR-5 ovarian
HS 578T breast = tested on: HS 578T breast
LOX IMVI melanoma = tested on: LOX IMVI melanoma
HL-60(TB) leukemia = tested on: HL-60(TB) leukemia
DU-145 prostate = tested on: DU-145 prostate
A549 NSCLC = tested on: A549 NSCLC
PC-3 prostate = tested on: PC-3 prostate
SF-295 CNS = tested on: SF-295 CNS
COLO 205 colon = tested on: COLO 205 colon
HCT-15 colon = tested on: HCT-15 colon
UACC-257 melanoma = tested on: UACC-257 melanoma
CCRF-CEM leukemia = tested on: CCRF-CEM leukemia
A498 renal = tested on: A498 renal
NCI-H522 lung = tested on: NCI-H522 lung
SN12C renal = tested on: SN12C renal
OVCAR-8 ovarian = tested on: OVCAR-8 ovarian
T-47D breast = tested on: T-47D breast
SNB-75 CNS = tested on: SNB-75 CNS
EKVX NSCLC = tested on: EKVX NSCLC
MDA-MB-231 breast = tested on: MDA-MB-231 breast
NCI-H460 lung = tested on: NCI-H460 lung
M14 melanoma = tested on: M14 melanoma
HOP-92 NSCLC = tested on: HOP-92 NSCLC
CAKI-1 renal = tested on: CAKI-1 renal

In the case of CC1CCCN1CCCOC(=O)c1ccc(OC2C=CCCC2)cc1 (configuration not stated), the TGI (MDA-N) was over 100 µM, the TGI (NCI/ADR-RES ovarian) was over 100 µM and the TGI (SR leukemia) was 59.9 µM. For the same molecule, the TGI (KM12 colon) was over 100 µM, the TGI (HOP-62 NSCLC) was 42.1 µM and the TGI (NCI-H226 lung) was 86.4 µM. For the same molecule, the TGI (NCI-H23 lung) was 63.3 µM, the TGI (OVCAR-4 ovarian) was over 100 µM and the TGI (SK-MEL-28 melanoma) was over 100 µM. For the same molecule, the TGI (SK-OV-3 ovarian) was over 100 µM, the TGI (SK-MEL-5 melanoma) was 35.2 µM and the TGI (SW-620 colon) was 46.4 µM. It also gave a TGI (SF-539 CNS) of 74.9 µM, a TGI (IGROV1 ovarian) of 58.4 µM and a TGI (RPMI-8226 leukemia) of 68.2 µM. For the same molecule, the TGI (U251 CNS) was over 100 µM, the TGI (UO-31 renal) was over 100 µM and the TGI (BT-549 breast) was over 100 µM. It also gave a TGI (TK-10 renal) of 88.8 µM, a TGI (MDA-MB-435) of over 100 µM and a TGI (SK-MEL-2 melanoma) of over 100 µM. For the same molecule, the TGI (RXF 393 renal) was 52 µM, the TGI (MOLT-4 leukemia) was 55.3 µM and the TGI (OVCAR-3 ovarian) was over 100 µM. The TGI (MCF7 breast) was 49.6 µM, the TGI (K-562 leukemia) was 38.9 µM and the TGI (SNB-19 CNS) was over 100 µM. The TGI (HCT-116 colon) was 35.8 µM, the TGI (HT29 colon) was 60.4 µM and the TGI (MALME-3M melanoma) was 34.4 µM. The TGI (786-0 renal) was 40.4 µM, the TGI (SF-268 CNS) was over 100 µM and the TGI (UACC-62 melanoma) was over 100 µM. It also gave a TGI (HCC-2998 colon) of 64.9 µM, a TGI (ACHN renal) of over 100 µM and a TGI (OVCAR-5 ovarian) of over 100 µM. The TGI (HS 578T breast) was 71.8 µM, the TGI (LOX IMVI melanoma) was 36.7 µM and the TGI (HL-60(TB) leukemia) was 35.6 µM. The TGI (DU-145 prostate) was over 100 µM, the TGI (A549 NSCLC) was over 100 µM and the TGI (PC-3 prostate) was 78.9 µM. It also gave a TGI (SF-295 CNS) of 37.9 µM, a TGI (COLO 205 colon) of 31.4 µM and a TGI (HCT-15 colon) of 53 µM. It also gave a TGI (UACC-257 melanoma) of over 100 µM, a TGI (CCRF-CEM leukemia) of 66.7 µM and a TGI (A498 renal) of over 100 µM. It also gave a TGI (NCI-H522 lung) of 54 µM, a TGI (SN12C renal) of over 100 µM and a TGI (OVCAR-8 ovarian) of over 100 µM. It also gave a TGI (T-47D breast) of 34.4 µM, a TGI (SNB-75 CNS) of 34.6 µM and a TGI (EKVX NSCLC) of over 100 µM. It also gave a TGI (MDA-MB-231 breast) of 47.8 µM, a TGI (NCI-H460 lung) of 32.9 µM and a TGI (M14 melanoma) of 31.6 µM.
C[C@]12CCC3=NCCN3C1=CC[C@@H]1[C@@H]2CC[C@@]2(C)[C@H]1CC[C@]2(C)O gave a TGI (MDA-N) of over 100 µM, a TGI (NCI/ADR-RES ovarian) of over 100 µM and a TGI (HOP-92 NSCLC) of over 100 µM. For the same molecule, the TGI (SR leukemia) was over 100 µM, the TGI (KM12 colon) was over 100 µM and the TGI (HOP-62 NSCLC) was over 100 µM. For the same molecule, the TGI (NCI-H226 lung) was 96.3 µM, the TGI (NCI-H23 lung) was over 100 µM and the TGI (OVCAR-4 ovarian) was over 100 µM. It also gave a TGI (CAKI-1 renal) of over 100 µM, a TGI (SK-MEL-28 melanoma) of 99.6 µM and a TGI (SK-OV-3 ovarian) of over 100 µM. For the same molecule, the TGI (SK-MEL-5 melanoma) was 35.6 µM, the TGI (SW-620 colon) was over 100 µM and the TGI (SF-539 CNS) was 80 µM. For the same molecule, the TGI (IGROV1 ovarian) was over 100 µM, the TGI (RPMI-8226 leukemia) was 70.8 µM and the TGI (U251 CNS) was over 100 µM. For the same molecule, the TGI (UO-31 renal) was over 100 µM, the TGI (BT-549 breast) was over 100 µM and the TGI (TK-10 renal) was over 100 µM. It also gave a TGI (MDA-MB-435) of over 100 µM, a TGI (SK-MEL-2 melanoma) of over 100 µM and a TGI (RXF 393 renal) of 66.4 µM. It also gave a TGI (MOLT-4 leukemia) of over 100 µM, a TGI (OVCAR-3 ovarian) of over 100 µM and a TGI (MCF7 breast) of over 100 µM. The TGI (K-562 leukemia) was over 100 µM, the TGI (SNB-19 CNS) was over 100 µM and the TGI (HCT-116 colon) was over 100 µM. The TGI (HT29 colon) was over 100 µM, the TGI (MALME-3M melanoma) was 53.5 µM and the TGI (786-0 renal) was 32.4 µM. The TGI (SF-268 CNS) was over 100 µM, the TGI (UACC-62 melanoma) was 76.4 µM and the TGI (ACHN renal) was over 100 µM. It also gave a TGI (OVCAR-5 ovarian) of over 100 µM, a TGI (HS 578T breast) of 74.7 µM and a TGI (LOX IMVI melanoma) of over 100 µM. It also gave a TGI (DU-145 prostate) of over 100 µM, a TGI (A549 NSCLC) of over 100 µM and a TGI (PC-3 prostate) of over 100 µM. For the same molecule, the TGI (SF-295 CNS) was 42.6 µM, the TGI (COLO 205 colon) was 75.5 µM and the TGI (HCT-15 colon) was over 100 µM. The TGI (UACC-257 melanoma) was 73.1 µM, the TGI (A498 renal) was 77.6 µM and the TGI (NCI-H522 lung) was over 100 µM. The TGI (SN12C renal) was over 100 µM, the TGI (OVCAR-8 ovarian) was over 100 µM and the TGI (T-47D breast) was over 100 µM. For the same molecule, the TGI (SNB-75 CNS) was over 100 µM, the TGI (EKVX NSCLC) was over 100 µM and the TGI (MDA-MB-231 breast) was over 100 µM. It also gave a TGI (NCI-H460 lung) of over 100 µM and a TGI (M14 melanoma) of over 100 µM.
Molecule CC(=O)NN(c1ccccc1)C1CCN(c2ccccc2)N1C(C)=O (configuration not stated) has a TGI (MDA-N) of over 10 µM, a TGI (NCI/ADR-RES ovarian) of over 10 µM and a TGI (SR leukemia) of over 10 µM. The TGI (HOP-62 NSCLC) was over 10 µM, the TGI (NCI-H226 lung) was over 10 µM and the TGI (NCI-H23 lung) was over 10 µM. It also gave a TGI (OVCAR-4 ovarian) of over 10 µM, a TGI (CAKI-1 renal) of over 10 µM and a TGI (SK-MEL-28 melanoma) of over 10 µM. For the same molecule, the TGI (SK-OV-3 ovarian) was over 10 µM, the TGI (SK-MEL-5 melanoma) was over 10 µM and the TGI (SW-620 colon) was over 10 µM. For the same molecule, the TGI (SF-539 CNS) was over 10 µM, the TGI (IGROV1 ovarian) was over 10 µM and the TGI (RPMI-8226 leukemia) was over 10 µM. It also gave a TGI (UO-31 renal) of over 10 µM, a TGI (BT-549 breast) of over 10 µM and a TGI (TK-10 renal) of over 10 µM. It also gave a TGI (MDA-MB-435) of over 10 µM, a TGI (SK-MEL-2 melanoma) of over 10 µM and a TGI (RXF 393 renal) of over 10 µM. It also gave a TGI (MOLT-4 leukemia) of over 10 µM, a TGI (OVCAR-3 ovarian) of over 10 µM and a TGI (MCF7 breast) of over 10 µM. The TGI (K-562 leukemia) was 7.65 µM, the TGI (SNB-19 CNS) was over 10 µM and the TGI (HCT-116 colon) was over 10 µM. The TGI (HT29 colon) was over 10 µM, the TGI (MALME-3M melanoma) was over 10 µM and the TGI (786-0 renal) was over 10 µM. The TGI (SF-268 CNS) was over 10 µM, the TGI (HCC-2998 colon) was over 10 µM and the TGI (ACHN renal) was over 10 µM. For the same molecule, the TGI (OVCAR-5 ovarian) was over 10 µM, the TGI (HS 578T breast) was over 10 µM and the TGI (LOX IMVI melanoma) was over 10 µM. It also gave a TGI (HL-60(TB) leukemia) of over 10 µM, a TGI (DU-145 prostate) of over 10 µM and a TGI (A549 NSCLC) of over 10 µM. The TGI (PC-3 prostate) was over 10 µM, the TGI (SF-295 CNS) was over 10 µM and the TGI (COLO 205 colon) was over 10 µM. For the same molecule, the TGI (HCT-15 colon) was over 10 µM, the TGI (UACC-257 melanoma) was over 10 µM and the TGI (CCRF-CEM leukemia) was over 10 µM. The TGI (NCI-H522 lung) was over 10 µM, the TGI (SN12C renal) was over 10 µM and the TGI (OVCAR-8 ovarian) was over 10 µM. The TGI (T-47D breast) was over 10 µM, the TGI (SNB-75 CNS) was over 10 µM and the TGI (EKVX NSCLC) was over 10 µM. It also gave a TGI (MDA-MB-231 breast) of over 10 µM, a TGI (NCI-H460 lung) of over 10 µM and a TGI (M14 melanoma) of over 10 µM.
